{"source": "ChEMBL document CHEMBL1208692", "about": "“A specific and direct comparison of the trifluoromethyl and pentafluoro sulfanyl groups on the selective dopamine D(3) antagonist 3-(3-{[4-methyl-5-(4-methyl-1,3-oxazol-5-yl)-4H-1,2,4-triazol-3-yl]thio}propyl)-1-phenyl-3-azabicyclo[3.1.0]hexane template” (Bioorg Med Chem Lett, 2010)", "key": {"[1]": {"assay": "Blood clearance in rat", "assay_type": "ADME, organism-based", "conditions": "whole blood"}, "[2]": {"assay": "Tmax in rat", "assay_type": "ADME, organism-based", "conditions": "in vivo"}, "[3]": {"assay": "Ratio of drug level in brain to blood in rat", "assay_type": "ADME, tissue-based", "conditions": "read-out: BBR"}, "Cytochrome P450 1A2": {"target": "T1, Cytochrome P450 1A2 (Homo sapiens, UniProt P05177)", "T1 sequence (P05177 whole entry)": "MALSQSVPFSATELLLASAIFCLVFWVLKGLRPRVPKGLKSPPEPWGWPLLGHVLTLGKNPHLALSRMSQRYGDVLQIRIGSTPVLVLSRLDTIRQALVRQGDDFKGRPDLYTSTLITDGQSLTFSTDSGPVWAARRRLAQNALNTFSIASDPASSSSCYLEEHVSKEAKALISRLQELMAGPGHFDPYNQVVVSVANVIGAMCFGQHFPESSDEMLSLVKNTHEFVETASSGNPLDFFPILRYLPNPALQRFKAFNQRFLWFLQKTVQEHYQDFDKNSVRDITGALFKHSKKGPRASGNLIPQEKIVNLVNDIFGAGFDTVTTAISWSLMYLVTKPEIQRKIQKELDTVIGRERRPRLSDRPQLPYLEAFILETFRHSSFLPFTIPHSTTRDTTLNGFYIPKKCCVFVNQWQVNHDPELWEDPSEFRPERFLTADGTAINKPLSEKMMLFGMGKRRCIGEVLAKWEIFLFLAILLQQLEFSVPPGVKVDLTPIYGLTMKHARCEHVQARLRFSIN", "assay": "Inhibition of CYP1A2", "assay_type": "ADME"}, "Cytochrome P450 2C9": {"target": "Cytochrome P450 2C9 (Homo sapiens, UniProt P11712)", "sequence (P11712 whole entry)": "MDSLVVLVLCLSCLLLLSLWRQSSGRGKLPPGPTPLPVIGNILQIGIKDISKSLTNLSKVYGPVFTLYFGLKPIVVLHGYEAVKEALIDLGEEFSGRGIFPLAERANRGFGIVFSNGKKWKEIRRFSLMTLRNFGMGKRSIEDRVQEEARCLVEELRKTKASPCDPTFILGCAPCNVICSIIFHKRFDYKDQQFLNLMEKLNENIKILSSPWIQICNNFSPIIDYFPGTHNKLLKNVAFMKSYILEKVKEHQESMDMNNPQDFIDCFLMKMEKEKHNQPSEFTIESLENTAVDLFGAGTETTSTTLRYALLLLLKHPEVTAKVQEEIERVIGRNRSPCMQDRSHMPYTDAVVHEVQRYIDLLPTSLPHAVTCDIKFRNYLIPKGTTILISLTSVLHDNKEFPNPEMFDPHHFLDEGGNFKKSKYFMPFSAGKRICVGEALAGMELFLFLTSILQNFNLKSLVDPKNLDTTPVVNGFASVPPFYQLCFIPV", "assay": "Inhibition of CYP2C9", "assay_type": "ADME"}, "Cytochrome P450 2C19": {"target": "Cytochrome P450 2C19 (Homo sapiens, UniProt P33261)", "sequence (P33261 whole entry)": "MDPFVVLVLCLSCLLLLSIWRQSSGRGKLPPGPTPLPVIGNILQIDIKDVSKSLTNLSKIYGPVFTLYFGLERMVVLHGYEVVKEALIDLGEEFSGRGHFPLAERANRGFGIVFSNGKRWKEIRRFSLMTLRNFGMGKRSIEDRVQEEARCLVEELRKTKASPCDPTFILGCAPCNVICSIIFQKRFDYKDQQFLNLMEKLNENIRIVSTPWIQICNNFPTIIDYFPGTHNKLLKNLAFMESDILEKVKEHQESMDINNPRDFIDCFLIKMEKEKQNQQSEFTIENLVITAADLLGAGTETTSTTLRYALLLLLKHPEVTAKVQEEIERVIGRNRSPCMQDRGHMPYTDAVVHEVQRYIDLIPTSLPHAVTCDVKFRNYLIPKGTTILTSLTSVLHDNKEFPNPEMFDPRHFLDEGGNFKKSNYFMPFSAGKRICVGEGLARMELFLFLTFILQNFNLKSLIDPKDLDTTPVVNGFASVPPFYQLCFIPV", "assay": "Inhibition of CYP2C19", "assay_type": "ADME"}, "Cytochrome P450 2D6": {"target": "Cytochrome P450 2D6 (Homo sapiens, UniProt P10635)", "sequence (P10635 whole entry)": "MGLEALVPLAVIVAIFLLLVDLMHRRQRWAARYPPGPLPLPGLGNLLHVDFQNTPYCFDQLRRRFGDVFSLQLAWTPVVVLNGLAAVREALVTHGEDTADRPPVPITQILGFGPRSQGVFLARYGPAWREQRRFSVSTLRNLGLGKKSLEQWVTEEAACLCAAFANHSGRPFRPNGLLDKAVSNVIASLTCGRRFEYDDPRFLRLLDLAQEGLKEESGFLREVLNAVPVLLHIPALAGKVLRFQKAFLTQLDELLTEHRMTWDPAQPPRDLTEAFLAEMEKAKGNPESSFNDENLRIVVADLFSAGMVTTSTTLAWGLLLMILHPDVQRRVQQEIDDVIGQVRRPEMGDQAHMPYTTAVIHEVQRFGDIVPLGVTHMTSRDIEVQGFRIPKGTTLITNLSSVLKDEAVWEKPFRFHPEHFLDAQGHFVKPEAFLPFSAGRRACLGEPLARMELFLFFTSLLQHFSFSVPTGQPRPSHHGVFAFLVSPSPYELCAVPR", "assay": "Inhibition of CYP2D6", "assay_type": "ADME"}, "Cytochrome P450 3A4 [4]": {"target": "T2, Cytochrome P450 3A4 (Homo sapiens, UniProt P08684)", "T2 sequence (P08684 whole entry)": "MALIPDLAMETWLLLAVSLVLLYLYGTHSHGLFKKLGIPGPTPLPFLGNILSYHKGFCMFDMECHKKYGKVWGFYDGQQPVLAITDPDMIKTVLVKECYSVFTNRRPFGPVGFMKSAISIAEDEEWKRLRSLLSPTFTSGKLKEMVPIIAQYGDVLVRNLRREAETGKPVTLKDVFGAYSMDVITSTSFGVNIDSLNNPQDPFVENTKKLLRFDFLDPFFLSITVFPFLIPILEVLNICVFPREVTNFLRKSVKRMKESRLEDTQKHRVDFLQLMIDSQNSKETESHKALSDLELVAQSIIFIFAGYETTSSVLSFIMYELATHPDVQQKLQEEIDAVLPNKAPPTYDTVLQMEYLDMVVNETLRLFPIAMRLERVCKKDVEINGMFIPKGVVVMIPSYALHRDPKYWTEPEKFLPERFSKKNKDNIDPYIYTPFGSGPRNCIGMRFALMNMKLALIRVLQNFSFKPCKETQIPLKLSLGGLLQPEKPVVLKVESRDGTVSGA", "assay": "Inhibition of CYP3A4 using diethoxyfluorescein as substrate", "assay_type": "ADME"}, "Cytochrome P450 3A4 [5]": {"target": "T2, Cytochrome P450 3A4", "assay": "Inhibition of CYP3A4 using 7-benzyloxyquinoline as substrate", "assay_type": "ADME"}, "D(2) dopamine receptor": {"target": "D(2) dopamine receptor (Homo sapiens, UniProt P14416)", "sequence (P14416 whole entry)": "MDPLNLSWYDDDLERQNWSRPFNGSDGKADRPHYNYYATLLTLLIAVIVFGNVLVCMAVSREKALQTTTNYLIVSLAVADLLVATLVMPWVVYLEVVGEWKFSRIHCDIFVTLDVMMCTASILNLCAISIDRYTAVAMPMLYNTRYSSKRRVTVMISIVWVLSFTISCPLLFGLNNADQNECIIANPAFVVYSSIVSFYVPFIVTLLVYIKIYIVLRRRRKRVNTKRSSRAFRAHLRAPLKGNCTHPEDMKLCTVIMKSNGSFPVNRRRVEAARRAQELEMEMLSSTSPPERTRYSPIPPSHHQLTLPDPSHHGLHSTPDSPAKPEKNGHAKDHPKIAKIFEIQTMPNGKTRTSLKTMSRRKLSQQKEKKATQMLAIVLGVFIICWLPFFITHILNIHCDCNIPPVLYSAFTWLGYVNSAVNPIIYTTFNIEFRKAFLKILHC", "assay": "Antagonist activity at dopamine D2 receptor assessed as inhibition of dopamine-induced [35S]GTPgammaS binding […]", "assay_type": "functional"}, "[6]": {"assay": "Half life in rat", "assay_type": "ADME, organism-based", "conditions": "in vivo"}, "[7]": {"assay": "Volume of distribution in rat", "assay_type": "ADME, organism-based", "conditions": "in vivo"}, "[8]": {"assay": "Bioavailability in rat", "assay_type": "ADME, organism-based", "conditions": "in vivo"}, "D(3) dopamine receptor": {"target": "D(3) dopamine receptor (Homo sapiens, UniProt P35462)", "sequence (P35462 whole entry)": "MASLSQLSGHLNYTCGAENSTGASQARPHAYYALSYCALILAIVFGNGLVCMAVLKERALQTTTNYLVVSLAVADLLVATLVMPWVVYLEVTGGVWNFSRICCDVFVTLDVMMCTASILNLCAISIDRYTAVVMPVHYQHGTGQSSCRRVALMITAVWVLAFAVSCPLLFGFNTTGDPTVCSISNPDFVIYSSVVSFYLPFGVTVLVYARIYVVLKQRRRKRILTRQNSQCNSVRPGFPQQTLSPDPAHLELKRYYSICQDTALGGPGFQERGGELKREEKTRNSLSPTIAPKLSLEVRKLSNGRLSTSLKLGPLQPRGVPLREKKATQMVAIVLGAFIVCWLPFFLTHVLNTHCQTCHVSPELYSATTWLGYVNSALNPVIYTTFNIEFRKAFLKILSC", "assay": "Antagonist activity at dopamine D3 receptor assessed as inhibition of dopamine-induced [35S]GTPgammaS binding […]", "assay_type": "functional"}, "[9]": {"target": "Voltage-gated inwardly rectifying potassium channel KCNH2 (Homo sapiens, UniProt Q12809)", "sequence (Q12809 whole entry)": "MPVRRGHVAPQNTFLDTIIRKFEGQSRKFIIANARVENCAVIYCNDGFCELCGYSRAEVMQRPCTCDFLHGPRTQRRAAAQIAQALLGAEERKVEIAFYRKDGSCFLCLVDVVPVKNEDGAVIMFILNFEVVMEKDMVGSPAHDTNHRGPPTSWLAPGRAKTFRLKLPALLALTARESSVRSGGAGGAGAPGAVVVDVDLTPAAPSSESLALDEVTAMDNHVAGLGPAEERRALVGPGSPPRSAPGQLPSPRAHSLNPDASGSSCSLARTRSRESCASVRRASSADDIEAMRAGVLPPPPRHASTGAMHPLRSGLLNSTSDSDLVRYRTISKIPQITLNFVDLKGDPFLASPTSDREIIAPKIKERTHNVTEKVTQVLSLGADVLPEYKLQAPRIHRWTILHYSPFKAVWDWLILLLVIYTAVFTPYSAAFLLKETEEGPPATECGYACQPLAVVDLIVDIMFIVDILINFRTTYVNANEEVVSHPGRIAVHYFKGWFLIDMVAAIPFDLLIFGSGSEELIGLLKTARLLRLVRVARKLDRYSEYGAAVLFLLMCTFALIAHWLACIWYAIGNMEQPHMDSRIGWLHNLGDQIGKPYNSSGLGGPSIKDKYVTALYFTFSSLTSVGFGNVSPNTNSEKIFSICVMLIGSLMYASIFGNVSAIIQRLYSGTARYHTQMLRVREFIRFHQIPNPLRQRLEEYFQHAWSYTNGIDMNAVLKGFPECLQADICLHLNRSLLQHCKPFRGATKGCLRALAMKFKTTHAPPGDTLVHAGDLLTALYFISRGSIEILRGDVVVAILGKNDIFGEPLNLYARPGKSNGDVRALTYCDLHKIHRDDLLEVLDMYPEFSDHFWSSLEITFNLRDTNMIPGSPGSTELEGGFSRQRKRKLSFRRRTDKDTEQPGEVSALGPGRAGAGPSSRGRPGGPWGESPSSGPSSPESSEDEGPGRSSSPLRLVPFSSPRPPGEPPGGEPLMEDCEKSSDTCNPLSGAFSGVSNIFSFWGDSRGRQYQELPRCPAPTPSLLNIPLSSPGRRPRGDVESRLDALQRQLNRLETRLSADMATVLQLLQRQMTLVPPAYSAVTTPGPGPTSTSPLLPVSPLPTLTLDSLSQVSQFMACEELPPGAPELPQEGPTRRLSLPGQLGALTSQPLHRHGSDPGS"}}, "data": [{"smiles": "Cc1ncoc1-c1nnc(SCCCN2CC3CC3(c3ccc(C(F)(F)F)cc3)C2)n1C", "note": "(racemic)", "values": [{"measurement": "clearance", "setting": "[1]", "result": 0.84, "unit": "L/h/kg"}, {"measurement": "Tmax", "setting": "[2]", "result": 1.5, "unit": "h"}, {"measurement": "Kp", "setting": "[3]", "result": 2.3}]}, {"smiles": "Cc1ncoc1-c1nnc(SCCCN2CC3CC3(c3cccc(C(F)(F)F)c3)C2)n1C", "note": "(racemic)", "values": [{"measurement": "IC50", "setting": "Cytochrome P450 1A2", "result": "> 10", "unit": "µM"}, {"measurement": "IC50", "setting": "Cytochrome P450 2C9", "result": "> 10", "unit": "µM"}, {"measurement": "IC50", "setting": "Cytochrome P450 2C19", "result": 5, "unit": "µM"}, {"measurement": "IC50", "setting": "Cytochrome P450 2D6", "result": "> 10", "unit": "µM"}, {"measurement": "IC50", "setting": "Cytochrome P450 3A4 [4]", "result": "> 10", "unit": "µM"}, {"measurement": "IC50", "setting": "Cytochrome P450 3A4 [5]", "result": "> 10", "unit": "µM"}]}, {"smiles": "Cc1ncoc1-c1nnc(SCCCN2CC3CC3(c3ccc(S(F)(F)(F)(F)F)cc3)C2)n1C", "note": "(racemic)", "values": [{"measurement": "Ki", "setting": "D(2) dopamine receptor", "result": 0.158, "unit": "µM"}, {"measurement": "IC50", "setting": "Cytochrome P450 1A2", "result": "> 10", "unit": "µM"}, {"measurement": "IC50", "setting": "Cytochrome P450 2C9", "result": 9, "unit": "µM"}, {"measurement": "IC50", "setting": "Cytochrome P450 2C19", "result": "> 10", "unit": "µM"}, {"measurement": "IC50", "setting": "Cytochrome P450 2D6", "result": 8, "unit": "µM"}, {"measurement": "IC50", "setting": "Cytochrome P450 3A4 [4]", "result": "> 10", "unit": "µM"}, {"measurement": "IC50", "setting": "Cytochrome P450 3A4 [5]", "result": "> 10", "unit": "µM"}, {"measurement": "clearance", "setting": "[1]", "result": 0.48, "unit": "L/h/kg"}, {"measurement": "half-life", "setting": "[6]", "result": 4.4, "unit": "h"}, {"measurement": "Vd", "setting": "[7]", "result": 2.8, "unit": "L/kg"}, {"measurement": "bioavailability", "setting": "[8]", "result": 87, "unit": "%"}, {"measurement": "Tmax", "setting": "[2]", "result": 2.7, "unit": "h"}, {"measurement": "Kp", "setting": "[3]", "result": 2.2}]}, {"smiles": "Cc1ncoc1-c1nnc(SCCCN2CC3CC3(c3cccc(S(F)(F)(F)(F)F)c3)C2)n1C", "note": "(racemic)", "values": [{"measurement": "Ki", "setting": "D(3) dopamine receptor", "result": 0.00126, "unit": "µM"}, {"measurement": "Ki", "setting": "D(2) dopamine receptor", "result": 0.126, "unit": "µM"}, {"measurement": "IC50", "setting": "Cytochrome P450 1A2", "result": "> 10", "unit": "µM"}, {"measurement": "IC50", "setting": "Cytochrome P450 2C9", "result": 4, "unit": "µM"}, {"measurement": "IC50", "setting": "Cytochrome P450 2C19", "result": 9, "unit": "µM"}, {"measurement": "IC50", "setting": "Cytochrome P450 2D6", "result": 3, "unit": "µM"}, {"measurement": "IC50", "setting": "Cytochrome P450 3A4 [4]", "result": "> 10", "unit": "µM"}, {"measurement": "IC50", "setting": "Cytochrome P450 3A4 [5]", "result": "> 10", "unit": "µM"}, {"measurement": "IC50", "setting": "[9]", "result": 1, "unit": "µM"}]}, {"smiles": "Cc1ncoc1-c1nnc(SCCCN2CC3CC3(c3ccc(S(F)(F)(F)(F)F)cc3)C2)n1C", "note": "(single isomer, unassigned)", "values": [{"measurement": "Ki", "setting": "D(3) dopamine receptor", "result": 0.0126, "unit": "µM"}, {"measurement": "Ki", "setting": "D(2) dopamine receptor", "result": 0.251, "unit": "µM"}, {"measurement": "IC50", "setting": "Cytochrome P450 1A2", "result": 7, "unit": "µM"}, {"measurement": "IC50", "setting": "Cytochrome P450 2C9", "result": 9, "unit": "µM"}, {"measurement": "IC50", "setting": "Cytochrome P450 2C19", "result": "> 10", "unit": "µM"}, {"measurement": "IC50", "setting": "Cytochrome P450 2D6", "result": "> 10", "unit": "µM"}, {"measurement": "IC50", "setting": "Cytochrome P450 3A4 [4]", "result": "> 10", "unit": "µM"}, {"measurement": "IC50", "setting": "Cytochrome P450 3A4 [5]", "result": "> 10", "unit": "µM"}]}, {"smiles": "Cc1ncoc1-c1nnc(SCCCN2CC3CC3(c3cccc(S(F)(F)(F)(F)F)c3)C2)n1C", "note": "(single isomer, unassigned; 11)", "values": [{"measurement": "Ki", "setting": "D(3) dopamine receptor", "result": 0.0158, "unit": "µM"}, {"measurement": "Ki", "setting": "D(2) dopamine receptor", "result": "> 3.16", "unit": "µM"}, {"measurement": "IC50", "setting": "Cytochrome P450 1A2", "result": "> 10", "unit": "µM"}, {"measurement": "IC50", "setting": "Cytochrome P450 2C9", "result": 2, "unit": "µM"}, {"measurement": "IC50", "setting": "Cytochrome P450 2C19", "result": 4, "unit": "µM"}, {"measurement": "IC50", "setting": "Cytochrome P450 2D6", "result": 5, "unit": "µM"}, {"measurement": "IC50", "setting": "Cytochrome P450 3A4 [4]", "result": "> 10", "unit": "µM"}, {"measurement": "IC50", "setting": "Cytochrome P450 3A4 [5]", "result": "> 10", "unit": "µM"}, {"measurement": "IC50", "setting": "[9]", "result": 2, "unit": "µM"}]}, {"smiles": "Cc1ncoc1-c1nnc(SCCCN2CC3CC3(c3cccc(S(F)(F)(F)(F)F)c3)C2)n1C", "note": "(single isomer, unassigned; 12)", "values": [{"measurement": "Ki", "setting": "D(3) dopamine receptor", "result": 0.000631, "unit": "µM"}, {"measurement": "Ki", "setting": "D(2) dopamine receptor", "result": 0.0316, "unit": "µM"}, {"measurement": "IC50", "setting": "Cytochrome P450 1A2", "result": "> 10", "unit": "µM"}, {"measurement": "IC50", "setting": "Cytochrome P450 2C9", "result": 2, "unit": "µM"}, {"measurement": "IC50", "setting": "Cytochrome P450 2C19", "result": 3, "unit": "µM"}, {"measurement": "IC50", "setting": "Cytochrome P450 2D6", "result": 2, "unit": "µM"}, {"measurement": "IC50", "setting": "Cytochrome P450 3A4 [4]", "result": "> 10", "unit": "µM"}, {"measurement": "IC50", "setting": "Cytochrome P450 3A4 [5]", "result": "> 10", "unit": "µM"}, {"measurement": "IC50", "setting": "[9]", "result": 1.26, "unit": "µM"}]}, {"smiles": "Cc1ncoc1-c1nnc(SCCCN2CC3CC3(c3ccc(S(F)(F)(F)(F)F)cc3)C2)n1C", "note": "(stereo in doubt; 8)", "values": [{"measurement": "Ki", "setting": "D(3) dopamine receptor", "result": 0.001, "unit": "µM"}, {"measurement": "Ki", "setting": "D(2) dopamine receptor", "result": 0.158, "unit": "µM"}, {"measurement": "IC50", "setting": "Cytochrome P450 1A2", "result": 8, "unit": "µM"}, {"measurement": "IC50", "setting": "Cytochrome P450 2C9", "result": 9, "unit": "µM"}, {"measurement": "IC50", "setting": "Cytochrome P450 2C19", "result": "> 10", "unit": "µM"}, {"measurement": "IC50", "setting": "Cytochrome P450 2D6", "result": "> 10", "unit": "µM"}, {"measurement": "IC50", "setting": "Cytochrome P450 3A4 [4]", "result": "> 10", "unit": "µM"}, {"measurement": "IC50", "setting": "Cytochrome P450 3A4 [5]", "result": "> 10", "unit": "µM"}]}]}
